These results are taken from patent US5773644A, “Cyclopropyl alkanoic acid derivatives” (G. D. Searle & Co., priority 1997, dated 1998).

Counter-ions that a name gives are not always drawn. Like-named read-outs stand apart in the source and are kept apart here.

As usually defined, the IC50 is the concentration that gives 50% inhibition.

Test [1] addresses T1, Human vitronectin receptor (αv β3) (Homo sapiens, UniProt P05106+P06756).
T1 construct: Human vitronectin receptor(αv β3) was purified from human placenta; from tissue; host or cells: human placenta
Briefly: Vitronectin adhesion assay (solid phase receptor assay, competition with biotinylated vitronectin). Format: binding. How it is done:
Human vitronectin receptor(αv β3) was purified from human placenta as previously described [Pytela et al., Methods in Enzymology, 144:475-489 (1987)]. Human vitronectin was purified from fresh frozen plasma as previously described [Yatohgo et al., Cell Structure and Function, 13:281-292 (1988)]. Biotinylated human vitronectin was prepared by coupling NHS-biotin from Pierce Chemical Company (Rockford, Ill.) to purified vitronectin as previously described [Charo et al., J. Biol. Chem., 266(3):1415-1421 (1991)]. Assay buffer, OPD substrate tablets, and RIA grade BSA were obtained from Sigma (St. Louis, Mo.). Anti-biotin antibody was obtained from Calbiochem (La Jolla, Calif.). Linbro microtiter plates were obtained from Flow Labs (McLean, Va.). ADP reagent was obtained from Sigma (St. Louis, Mo.). This assay was essentially the same as previously reported [Niiya et al., Blood, 70:475-483 (1987)]. The purified human vitronectin receptor (αv β3) was diluted from stock solutions to 1.0 μg/mL in Tris-buffered saline containing 1.0 mM Ca^++, Mg^++, and Mn^++, pH 7.4 (TBS^+++). The diluted receptor was immediately transferred to Linbro microtiter plates at 100 μL/well (100 ng receptor/well). The plates were sealed and incubated overnight at 4° C. to allow the receptor to bind to the wells. All remaining steps were at room temperature. The assay plates were emptied and 200 μL of 1% RIA grade BSA in TBS^+++ (TBS^+++ /BSA) were added to block exposed plastic surfaces. Following a 2 hour incubation, the assay plates were washed with TBS^+++ using a 96 well plate washer. Logarithmic serial dilution of the test compound and controls were made starting at a stock concentration of 2 mM and using 2 nM biotinylated vitronectin in TBS^+++ /BSA as the diluent. This premixing of labeled ligand with test (or control) ligand, and subsequent transfer of 50 μL aliquots to the assay plate was carried out with a CETUS Propette robot; the final concentration of the labeled ligand was 1 nM and the highest concentration of test compound was 1.0×10^-4 M. The competition occurred for two hours after which all wells were washed with a plate washer as before. Affinity purified horseradish peroxidase labeled goat anti-biotin antibody was diluted 1:3000 in TBS^+++ /BSA and 125 μL were added to each well. After 30 minutes, the plates were washed and incubated with OPD/H2 O2 substrate in 100 mM/L Citrate buffer, pH 5.0. The plate was read with a microtiter plate reader at a wavelength of 450 nm and when the maximum-binding control wells reached an absorbance of about 1.0, the final A450 were recorded for analysis. The data were analyzed using a macro written for use with the EXCEL™ spreadsheet program. The mean, standard deviation, and %CV were determined for duplicate concentrations. The mean A450 values were normalized to the mean of four maximum-binding controls (no competitor added) (B-MAX). The normalized values were subjected to a four parameter curve fit algorithm [Rodbard et al., Int.

The target in test [2] is T2, Human fibrinogen receptor (αIIb β3) (Homo sapiens, UniProt P05106+P08514).
T2 construct: Human fibrinogen receptor (αIIb β3) was purified from outdated platelets; from tissue; host or cells: outdated platelets (human)
Briefly: Purified IIb/IIIa receptor assay (solid phase receptor assay, competition with biotinylated vitronectin). As to conditions: inhibition of 50% of maximum binding of 1 nM biotinylated vitronectin; 2 h competition, room temperature, TBS+++ pH 7.4. An excerpt:
Human fibrinogen receptor (αIIb β3) was purified from outdated platelets. (Pytela, R., Pierschbacher, […]., Suzuki, S., and […] acid adhesion receptors", Methods in Enzymology 144(1987):475-489.) Human vitronectin was purified from fresh frozen plasma as described in Yatohgo, T., Izumi, M., Kashiwagi, H., and Hayashi, M., "Novel purification of vitronectin from human plasma by heparin affinity chromatography," Cell Structure and Function 13(1988):281-292. Biotinylated human vitronectin was prepared by coupling NHS-biotin from Pierce Chemical Company (Rockford, Ill.) to purified vitronectin as previously described. (Charo, […]., Phillips, D. R., Hsu, M. A., Scarborough, R. M., "Inhibition of fibrinogen binding to GP IIb/IIIa by a GP IIIa peptide", J. Biol. Chem. 266(3) (1991): 1415-1421.) Assay buffer, OPD substrate tablets, and RIA grade BSA were obtained from Sigma (St. Louis, Mo.). Anti-biotin antibody was obtained from Calbiochem (La Jolla, Calif.). Linbro microtiter plates were obtained from Flow Labs (McLean, Va.). ADP reagent was obtained from Sigma (St. Louis, Mo.). This assay is essentially the same reported in […]., Bader, R., Byers-Ward, […]., Plow, E. F. and Ruggeri, Z. M., "Increased surface expression of the membrane glycoprotein IIb/IIIa complex induced by platelet activation: Relationships to the binding of fibrinogen and platelet aggregation", Blood 70(1987):475-483. The purified human fibrinogen receptor (αIIb β3) was diluted from stock solutions to 1.0 μg/mL in Tris-buffered saline containing 1.0 mM Ca^++, Mg^++, and Mn^++, pH 7.4 (TBS^+++). The diluted receptor was immediately transferred to Linbro microtiter plates at 100 μL/well (100 ng receptor/well). The plates were sealed and incubated overnight at 4° C. to allow the receptor to bind to the wells. All remaining steps were at room temperature. The assay plates were emptied and 200 μL of 1% RIA grade BSA in TBS^+++ (TBS^+++ /BSA) were added to block exposed plastic surfaces. Following a 2 hour incubation, the assay plates were washed with TBS^+++ using a 96 well plate washer. Logarithmic serial dilution of the test compound and controls were made starting at a stock concentration of 2 mM and using 2 nM biotinylated vitronectin in TBS^+++ /BSA as the diluent. This premixing of labeled ligand with test (or control) ligand, and subsequent transfer of 50 μL aliquots to the assay plate was carried out with a CETUS Propette robot; the final concentration of the labeled ligand was 1 nM and the highest concentration of test compound was 1.0×10^-4 M. The competition occurred for two hours after which all wells were washed with a plate washer as before. Affinity purified horseradish peroxidase labeled goat anti-biotin antibody was diluted 1:3000 in TBS^+++ /BSA and 125 μL were added to each well. After 30 minutes, the plates were washed and incubated with […]/H2 O2 substrate in 100 mM/L citrate buffer, pH 5.0. The plate was read with a microtiter plate reader at a wavelength of 450 nm and when the maximum-binding control wells reached an absorbance of about 1.0, the final A450 were recorded for analysis. The data were analyzed using a macro written for use with the EXCELTM spreadsheet program. The mean, standard deviation, and %CV were determined for duplicate concentrations. The mean A450 values were normalized to the mean of four maximum-binding controls (no competitor added) (B-MAX). The normalized values were subjected to a four parameter curve fit algorithm, [Robard et al., Int.

[3] abbreviates: inhibition of 50% of maximum binding of 1 nM biotinylated vitronectin, 2 h competition, room temperature, TBS+++ pH 7.4, read-out: AVB3 IC50.

On to `N=C(N)NCCCCC(=O)NCC(=O)NC(CC(=O)O)c1cccnc1` (stereo not drawn) [β-[[2-[[5-[(aminoiminomethyl)amino]-1-oxopentyl]amino]-1-oxoethyl]amino]-3-pyridinepropanoic acid, reference compound], for which the IC50 in test [1] (positive control included on each plate, stated range, read-out: αv β3 antagonist IC50 (positive control)) was 0.003 to 0.01 µM. Take `CCOC(=O)C1CC1c1ccc(NC(=O)c2cccc(NC(=N)N)c2)cc1` (stereo not drawn) [Example 1, ethyl 2-[4-[[[3-[(aminoiminomethyl)amino]phenyl]carbonyl]amino]phenyl]cyclopropanecarboxylate, monohydrate trifluoroacetate salt]: the figures for the IC50 in test [1] (setting [3]) and in test [2] were 0.525 µM and 3.65 µM, respectively. As for “2-[3-[[[[3-[(aminoiminomethyl)amino]phenyl]carbonyl]amino]methyl]phenyl]cyclopropanecarboxylic acid, trifluoroacetate salt [Example 3]”, the values for the IC50 in test [1] (setting [3]) and in test [2] were 0.923 µM and 5.28 µM, respectively. The like results for `O=C(Nc1ccc(C2CC2C(=O)O)cc1)c1cccc(NC2=NCCCN2)c1` (stereo not drawn) [Example 7, 2-[4-[[[3-[(1,4,5,6-tetrahydropyrimidin-2-yl)amino]phenyl]carbonyl]amino]phenyl]cyclopropanecarboxylic acid, trifluoroacetate salt] were, in that order, 0.019 µM and 4.8 µM.

Regarding `N=C(N)Nc1cc(C(=O)Nc2ccc(C3CC3C(=O)O)cc2)cc(C(F)(F)F)c1` (stereo not drawn) [Example 6, 2-[4-[[[3-[(aminoiminomethyl)amino]-5-(trifluoromethyl)phenyl]carbonyl]amino]phenyl]cyclopropanecarboxylic acid, trifluoroacetate salt], the IC50 was found to be 0.122 µM in test [1] (setting [3]) and 9.7 µM in test [2]. On the same counts, the results for `N=C(N)Nc1cccc(C(=O)Nc2ccc(C3CC3C(=O)O)cc2)c1` (stereo not drawn) [Example 2, 2-[4-[[[3-[(aminoiminomethyl)amino]phenyl]carbonyl]amino]phenyl]cyclopropanecarboxylic acid, trifluoroacetate salt] are 0.0305 µM and 0.533 µM. On the same counts, the results for `COc1cc(NC(=O)c2cccc(NC(=N)N)c2)ccc1C1CC1C(=O)O` (stereo not drawn) [Example 5, 2-[4-[[[3-[(aminoiminomethyl)amino]phenyl]carbonyl]amino]-2-methoxyphenyl]cyclopropanecarboxylic acid, trifluoroacetate salt] are 0.0811 µM and 2.89 µM. On the same counts, the results for `NC(=O)N=C(N)Nc1cccc(C(=O)Nc2ccc(C3CC3C(=O)O)cc2)c1` (stereo not drawn) [Example 8, 2-[4-[[[3-[(amino[(aminocarbonyl)imino]methyl]amino]phenyl]carbonyl]amino]phenyl]cyclopropanecarboxylic acid, trifluoroacetate salt] are 1.38 µM and 13.1 µM.
